Assay in all cases: inhibition of tumour cell growth, NCI panel, 48 h
Assay [1] deals with SK-MEL-2.
Assay [2] has as its system M14.
In assay [3] the test system is LOX IMVI.
Assay [4] relates to OVCAR-3.
Assay [5] has as its system A498.
In assay [6] the test system is SNB-75.
Assay [7] concerns A549.
The subject of assay [8] is HCC 2998.
Assay [9] has as its system CCRF-CEM.
In assay [10] the test system is SF-268.
Assay [11] concerns HCT-15.
The subject of assay [12] is NCI-H23.
The test system of assay [13] is NCI-H522.
In assay [14] the test system is TK-10.
In assay [15] the test system is SR.
Assay [16] has as its system DU-145.
Assay [17] has as its system K562.
The test system of assay [18] is MDA-N.
The test system of assay [19] is SNB-19.
In assay [20] the test system is NCI-H460.

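Method: 48-hour compound exposure of cells in 96-well plates, five concentrations, linear interpolation of endpoints. Here, GI50 denotes the concentration required for 50% inhibition of growth.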 Calls of active or inactive are those of the source. No stated cut-off is given here; in the data, active = GI50 up to about 1.1 µM and inactive = higher.

With `COc1ccc(S(=O)(=O)N/N=C/C(=O)O)cc1`, the GI50 was 428 µM (inactive) in [1]; 684 µM (inactive) in assay [2]; 248 µM (inactive) in [3]; 495 µM (inactive) in assay [4]; 495 µM (inactive) in assay [5]; 708 µM (inactive) in [6]. For the same compound, the GI50 is 849 µM (inactive) in [7]; 607 µM (inactive) in [8]; 176 µM (inactive) in assay [9]; 384 µM (inactive) in assay [10]; 542 µM in assay [11]; 369 µM (inactive) in [12]. Also, the GI50 in assay [13] is 275 µM (inactive); in assay [14] it was 832 µM (inactive); in assay [15] it was 202 µM (inactive); in assay [16] it was 327 µM (inactive); in [17], 501 µM (inactive); in assay [18], 760 µM (inactive). In addition, the values for the GI50 in assay [19] and in [20] were 706 µM (inactive) and 359 µM (inactive), respectively.

With `O=P1(O)c2ccccc2Nc2cc(C(F)(F)F)ccc21`, the GI50 in [1], in assay [2], in assay [3], in [4], in [5] and in [6] was > 100 µM (inactive) in each case. Further, the GI50 in assay [7] was > 100 µM (inactive); in assay [8] it was > 100 µM (inactive); in [9], > 100 µM (inactive); in [10] it was > 100 µM (inactive); in assay [11], above 100 µM; in assay [12], > 100 µM (inactive). In addition, the GI50 in [13], in assay [14], in assay [15], in assay [16], in assay [17] and in assay [18] was > 100 µM (inactive) in each case. In addition, the GI50 in assay [19] and in assay [20] was > 100 µM (inactive) throughout.

As for `O=S(=O)(N=S(c1ccc(Cl)cc1)c1ccc(Cl)cc1)c1ccccc1`, the GI50 in assay [1] was > 100 µM (inactive); in assay [2] it was > 100 µM (inactive); in assay [3] it was > 100 µM (inactive); in assay [5], 19.7 µM (inactive); in assay [6] it was > 100 µM (inactive); in assay [7], 74.5 µM (inactive). Moreover, the GI50 was > 100 µM (inactive) in [8]; 59.4 µM (inactive) in assay [9]; > 100 µM (inactive) in assay [10]; 65.8 µM in assay [11]; 63.4 µM (inactive) in assay [12]; 70.3 µM (inactive) in assay [13]. The GI50 in assay [14] was > 100 µM (inactive); in assay [15], 37.5 µM (inactive); in [16], > 100 µM (inactive); in assay [17], 46.8 µM (inactive); in assay [18] it was 40.7 µM (inactive); in assay [19], > 100 µM (inactive). Moreover, the GI50 in assay [20] is 88.7 µM (inactive).

For `CCOc1cc(NC(C)=O)ccc1C(=O)NNS(=O)(=O)c1ccc(NC(C)=O)cc1`, the GI50 in assay [1] was 28.8 µM (inactive); in [2], 56 µM (inactive); in assay [3], 55.7 µM (inactive); in assay [4] it was 34.6 µM (inactive); in assay [5], 51.8 µM (inactive); in assay [6] it was 72.9 µM (inactive). Further, the GI50 in [7] is 72.8 µM (inactive); in [8] it was > 100 µM (inactive); in assay [9], 38.9 µM (inactive); in [10], 88.7 µM (inactive); in assay [11] it was 53.6 µM; in assay [12] it was 97.3 µM (inactive). For the same compound, the GI50 in assay [13] is 37.4 µM (inactive); in [15], 13.6 µM (inactive); in assay [16], > 100 µM (inactive); in [17] it was 38 µM (inactive); in assay [18] it was 16.7 µM (inactive); in [19], 77.4 µM (inactive). For the same compound, the GI50 in assay [20] was 39.6 µM (inactive).

Turning to `C(=C/c1ccc2nc(-c3ccc(/C=C/C=N/NC4=NCCCN4)cc3)cn2c1)/C=N/NC1=NCCCN1`, the GI50 in assay [1] is > 100 µM (inactive); in assay [2], 66.4 µM (inactive); in assay [4], > 100 µM (inactive); in assay [5], > 100 µM (inactive); in assay [6] it was 35.7 µM (inactive); in [7] it was 10.3 µM (inactive). For the same compound, the GI50 in assay [8] was 45.4 µM (inactive); in assay [9], 35.7 µM (inactive); in assay [10], 12.2 µM (inactive); in assay [11] it was above 100 µM; in assay [12], > 100 µM (inactive); in assay [13], 9.64 µM (inactive). Also, the GI50 in assay [14] was 19.5 µM (inactive); in assay [15], 31.2 µM (inactive); in [16], 17.5 µM (inactive); in [17], 4.39 µM (inactive); in [18], 43.9 µM (inactive); in assay [19] it was 89.7 µM (inactive). Further, the GI50 in [20] is 13.3 µM (inactive).

Consider `O=C1c2c(ccc3c2CCCC3)CC12Cc1ccccc1C2`, for which the GI50 is 17.4 µM (inactive) in [1]; 21 µM (inactive) in [2]; 10.1 µM (inactive) in [3]; 9.93 µM (inactive) in [4]; 11.1 µM (inactive) in assay [5]; 20.4 µM (inactive) in assay [6]. The GI50 in [7] was 13.1 µM (inactive); in assay [8], 19.1 µM (inactive); in assay [9], 10.8 µM (inactive); in assay [10], 43.2 µM (inactive); in assay [11], 4.75 µM; in assay [12], 10.3 µM (inactive). Moreover, the GI50 was 12.8 µM (inactive) in assay [13]; 28 µM (inactive) in assay [14]; 4.57 µM (inactive) in assay [15]; 22.3 µM (inactive) in assay [16]; 11.8 µM (inactive) in assay [17]; 6.43 µM (inactive) in assay [18]. Also, the figures for the GI50 in assay [19] and in assay [20] were 58.6 µM (inactive) and 4.93 µM (inactive), respectively.

`O=C1CSC2=NC3=C(COC/C3=C\c3ccc(F)cc3)C(c3ccc(F)cc3)N12` (stereo not given): the GI50 in assay [1] is 99.5 µM (inactive); in assay [2], 35.5 µM (inactive); in assay [3], 52 µM (inactive); in assay [4], 49.7 µM (inactive); in assay [5], > 100 µM (inactive); in assay [6], > 100 µM (inactive). The GI50 in assay [8] is 48.6 µM (inactive); in assay [9] it was 25.8 µM (inactive); in assay [10] it was > 100 µM (inactive); in [11], 37.2 µM; in assay [12], 73.1 µM (inactive); in assay [13], 28.2 µM (inactive). Further, the GI50 in assay [14] is 99.5 µM (inactive); in [15], 20.7 µM (inactive); in assay [16] it was 35.2 µM (inactive); in assay [17], 34.4 µM (inactive); in assay [18] it was 41.7 µM (inactive); in assay [19], 94.2 µM (inactive). The GI50 in assay [20] is 38.1 µM (inactive).

Regarding `Cc1ccc(/C=C2\CCC/C(=C\c3ccc(O)c(CN4CCCCC4)c3)C2=O)cc1`, the GI50 in assay [1] is 19.9 µM (inactive); in [2] it was 3.73 µM (inactive); in assay [3] it was 3.18 µM (inactive); in [4], 10.9 µM (inactive); in assay [5], 3.1 µM (inactive); in assay [6], 6.49 µM (inactive). In addition, the GI50 in assay [7] is 9.4 µM (inactive); in assay [8] it was 4.46 µM (inactive); in assay [10], 3.14 µM (inactive); in assay [11] it was 3.02 µM; in [12], 5.64 µM (inactive); in [13], 3.85 µM (inactive). In addition, the GI50 is 14.6 µM (inactive) in assay [14]; 3.71 µM (inactive) in assay [15]; 4.91 µM (inactive) in [16]; 3.56 µM (inactive) in assay [17]; 4.22 µM (inactive) in assay [18]; 16.2 µM (inactive) in [19]. In assay [20], the GI50 was 3.96 µM (inactive).

For the compound `CN(C)CCOc1ccc(I)cc1Cc1ccccc1`, the GI50 in [1] is 15 µM (inactive); in [2], 2.66 µM (inactive); in assay [3], 5.2 µM (inactive); in assay [4] it was 13.2 µM (inactive); in assay [5] it was 13.9 µM (inactive); in assay [6] it was 1.52 µM (inactive). The GI50 was 15.5 µM (inactive) in assay [7]; 3.29 µM (inactive) in [8]; 4.85 µM (inactive) in assay [9]; 13.2 µM (inactive) in [10]; 12.2 µM in assay [11]; 4.05 µM (inactive) in [12]. The GI50 in [13] was 11.9 µM (inactive); in assay [14], 12.7 µM (inactive); in assay [15], 2.65 µM (inactive); in assay [16] it was 17.1 µM (inactive); in assay [17], 3.39 µM (inactive); in assay [18] it was 5.31 µM (inactive). For the same compound, the GI50 in assay [19] was 13.7 µM (inactive); in [20] it was 11.9 µM (inactive).

Regarding `CC[C@@H](/C=C\CCC1(C[C@H](O)CCC=C(C)C)OCCO1)O[Si](C(C)C)(C(C)C)C(C)C`, the GI50 in assay [1] is 16.3 µM (inactive); in [2], 26.5 µM (inactive); in [3], 20.4 µM (inactive); in [4], 19 µM (inactive); in assay [5], 32.8 µM (inactive); in assay [6] it was 29.5 µM (inactive). The GI50 in assay [7] is 33.2 µM (inactive); in assay [8], 16.4 µM (inactive); in assay [9], 29 µM (inactive); in assay [10], 21.6 µM (inactive); in assay [11], 20.1 µM; in assay [12], 26.9 µM (inactive). The GI50 was 20.2 µM (inactive) in [13]; 20.6 µM (inactive) in assay [14]; 21.2 µM (inactive) in assay [15]; 30 µM (inactive) in assay [16]; 20 µM (inactive) in [17]; 33.5 µM (inactive) in assay [18]. Besides, the results for the GI50 in assay [19] and in [20] were 18.9 µM (inactive) and 21.9 µM (inactive), respectively.
